Measured values taken from patent US20100105724A1, “CRYSTALLINE AND AMORPHOUS FORMS OF PALONOSETRON HYDROCHLORIDE” (HELSINN HEALTHCARE SA, priority 2006, published 2010).

Key:
[1] = tested on: other receptors such as dopamine receptors; conditions: literature (Wong 1995; Eglen 1995); cited from earlier work
[2] = molecular target: T1, 5-hydroxyltryptamine 3 receptor precursor (5-HT3 receptor) (Homo sapiens, UniProt P46098); conditions: in vitro, literature (Wong 1995; Eglen 1995); cited from earlier work
T1 sequence (P46098 24-478): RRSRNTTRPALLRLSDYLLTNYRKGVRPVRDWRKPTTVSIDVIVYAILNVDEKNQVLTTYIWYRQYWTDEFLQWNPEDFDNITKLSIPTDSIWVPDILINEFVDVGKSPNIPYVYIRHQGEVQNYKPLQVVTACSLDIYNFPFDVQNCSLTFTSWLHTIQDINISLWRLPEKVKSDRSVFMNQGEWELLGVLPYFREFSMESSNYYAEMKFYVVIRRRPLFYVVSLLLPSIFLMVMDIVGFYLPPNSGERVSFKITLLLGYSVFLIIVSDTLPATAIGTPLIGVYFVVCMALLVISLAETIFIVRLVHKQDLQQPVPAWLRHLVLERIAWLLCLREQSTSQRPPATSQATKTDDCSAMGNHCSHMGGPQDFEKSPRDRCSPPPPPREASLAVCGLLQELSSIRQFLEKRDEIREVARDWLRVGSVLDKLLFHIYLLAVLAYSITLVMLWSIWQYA

[3] = Physical stability determination of polymorphs and amorphous phase; format: physicochemical
Description: Physical Stability Determination—The physical stability of the polymorphs was determined by wetting the powders with water, suspending in ethanol, ethyl acetate, and exposing them to 93% relative humidity (RH) and 26% RH. The DSC thermogram and the x-ray diffraction pattern were obtained after a few days to determine if phase changes had occurred. The physical stability of the amorphous phase was determined by equilibrating a sample at 40° C., 75% RH for two weeks.

[4] = Hygroscopicity measurement (water absorption at constant relative humidity); format: physicochemical; conditions: for hygroscopicity: humidities up to 82% RH
Description: Hygroscopicity Measurement—Samples of 20-30 mg of the compound were weighed into small weighing bottles with ground glass tops. The bottles were dried in a 60° C. oven for 30 minutes. The samples were cooled in a dessicator containing anhydrous CaSO4 and then transferred to humidity chambers maintained at constant relative humidities with saturated salt solutions. The samples were weighed at different time intervals until equilibrium was reached. The percent moisture absorbed at a given time was calculated as follows: % Weight Change=((Wt−Wo)/Wo)×100 wherein W1=sample weight at given time after exposure to the indicated relative humidity, and Wo=initial sample weight.

O=C1c2cccc3c2[C@H](CCC3)CN1[C@@H]1CN2CCC1CC2 (single isomer, unassigned) [Palonosetron]
affinity for other receptors such as dopamine receptors [1]: low affinity
affinity as an antagonist for the 5-HT3 receptor [2]: high affinity

Cl.O=C1c2cccc3c2[C@H](CCC3)CN1[C@@H]1CN2CCC1CC2 [amorphous form]
physical stability at low humidity ([3]; 26% RH, two weeks): remained amorphous
phase change on equilibration ([3]; 40° C., 75% RH, two weeks): converted to Form I
solid form after deliquescence at ambient humidity ([3]; ambient humidity, subsequent to deliquescence): re-solidified as Form II
behaviour on exposure to ambient humidity ([3]; removed from the desiccator, ambient humidity): deliquesced immediately

Cl.O=C1c2cccc3c2[C@H](CCC3)CN1[C@@H]1CN2CCC1CC2 [Form II]
phase change in suspension ([3]; suspended in ethanol for one week at ambient temperature (~25° C.)): converted to Form I

Cl.O=C1c2cccc3c2[C@H](CCC3)CN1[C@@H]1CN2CCC1CC2 [Palonosetron hydrochloride, (3aS)-2-[(S)-1-Azabicyclo [2.2.2]oct-3-yl]-2,3,3a,4,5,6-hexahydro-1-oxo-1Hbenz[de] isoquinoline hydrochloride]
physical change on exposure to humidity ([4]; 93% RH, after eight days, hydrochloride): liquefies
hygroscopicity ([4]; hydrochloride): nonhygroscopic

Cl.O=C1c2cccc3c2[C@H](CCC3)CN1[C@@H]1CN2CCC1CC2 [Form I]
physical stability at high humidity ([3]; 93% relative humidity, two weeks, ambient temperature): deliquesced
physical stability as a suspension ([3]; suspension in ethanol): stable
physical stability as a suspension ([3]; suspension in ethyl acetate): stable
physical stability as a suspension ([3]; suspension in water): stable
Water absorbed ([4]; 50% relative humidity, 1 day): 0.02 weight %
Water absorbed ([4]; 50% relative humidity, 4 days): 0.14 weight %
Water absorbed ([4]; 50% relative humidity, 8 days): 0.05 weight %
Water absorbed ([4]; 75% relative humidity, 1 day): 0.15 weight %
Water absorbed ([4]; 75% relative humidity, 4 days): 0.22 weight %
Water absorbed ([4]; 75% relative humidity, 8 days): 0.22 weight %
Water absorbed ([4]; 82% relative humidity, 1 day): 0.14 weight %
Water absorbed ([4]; 82% relative humidity, 4 days): 0.25 weight %
Water absorbed ([4]; 82% relative humidity, 8 days): 0.54 weight %
moisture absorbed ([4]; 93% RH, after eight days): 26%
physical change on exposure to humidity ([4]; 93% RH, after eight days): turning into a paste
physical change on exposure to humidity ([4]; 93% RH, two weeks): liquefied
Water absorbed ([4]; 93% relative humidity, 1 day): 0.07 weight %
Water absorbed ([4]; 93% relative humidity, 4 days): 0.63 weight %
Water absorbed ([4]; 93% relative humidity, 8 days): 25.7 weight %
physical state of sample ([4]; 93% relative humidity, 8 days): Semi
Water absorbed (physical state printed) ([4]; 93% relative humidity, 15 days): Liquid
hygroscopicity [4]: not hygroscopic
Water absorbed ([4]; humidities up to 82%, after eight days): 0.5%
